Experiment [1] deals with KARPAS422 human B cell lymphoma cell. The experiment is described as follows: Cell proliferation, KARPAS422, 7 day treatment (WST-8). The format is cell-based. A digest of the protocol:
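Read-out was WST-8 absorbance at 450 nm after 1-4 h with reagent, taken after 7-day compound treatment (serial dilutions, 37 °C, 5% CO2) of 2 000-3 000 KARPAS422 cells per well. IC50 fitted by nonlinear regression on DMSO-normalized values.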

The target in another experiment is T1, EED (1-441)-His protein (Homo sapiens, UniProt O75530).
T1 construct: 20 nM EED (1-441)-His protein
The experiment is described as follows: EED-H3K27Me3 peptide competition binding assay by AlphaScreen. The note with it: EED Alpha screen binding assay, read-out: Alpha screen. On the procedure:
“N/A” stands for “not assessed”.
EED-H3K27Me3 peptide competition binding assay by AlphaScreen (α-screen)
2.5 μl of solutions containing 20 nM biotin-H3K27Me3 (19-33) peptide in the buffer (25 mM HEPES, pH 8, 0.02% Tween-20, 0.5% BSA) were added to the wells and then incubated with compound for 30 min. […] Then 10 μl of the detection beads mix was added to the plate and incubated in the dark at RT for 1 h. The final concentration of donor and acceptor beads was 10 μg/ml for each. […] The data were then fit to a dose response equation to get the IC50 values.

For a further experiment, the system named is Pfeiffer cell line. The experiment is described as follows: Anti-proliferative activity, Pfeiffer cell line, 7 day treatment. The format is cell-based. In a few lines:
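Cells seeded at 2 000-3 000 per well were treated with serially diluted compounds for 7 days at 37° C, 5% CO2. Growth was measured by WST-8 assay read at 450 nm after 1-4 h reagent incubation. Readings were normalized to DMSO-treated cells and IC50 values derived by nonlinear regression.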

[2] abbreviates: Homo sapiens, KARPAS-422, 168 h, anti-proliferative IC50 class, Karpas 422 cell line, 7 day treatment, read-out: Karpas Cell line.
The mark [3] stands for this setting: Homo sapiens, 168 h, anti-proliferative IC50 class, Pfeiffer cell line, 7 day treatment, read-out: Pfeiffer Cell line.
The mark [4] stands for this setting: Homo sapiens, KARPAS-422, 168 h, anti-proliferative IC50, Karpas 422 cell line, 7 day treatment, read-out: Karpas Cell line.
Setting [5] is: anti-proliferative IC50, Karpas 422 cell line, 7 day treatment, read-out: Karpas Cell line.

The values below come from patent US12145944B2, “Imidazopyrimidines as EED inhibitors and the use thereof” (THE REGENTS OF THE UNIVERSITY OF MICHIGAN, priority 2019, dated 2024).

Like-named read-outs stand apart in the source and are kept apart here.

T1 sequence (O75530 whole entry): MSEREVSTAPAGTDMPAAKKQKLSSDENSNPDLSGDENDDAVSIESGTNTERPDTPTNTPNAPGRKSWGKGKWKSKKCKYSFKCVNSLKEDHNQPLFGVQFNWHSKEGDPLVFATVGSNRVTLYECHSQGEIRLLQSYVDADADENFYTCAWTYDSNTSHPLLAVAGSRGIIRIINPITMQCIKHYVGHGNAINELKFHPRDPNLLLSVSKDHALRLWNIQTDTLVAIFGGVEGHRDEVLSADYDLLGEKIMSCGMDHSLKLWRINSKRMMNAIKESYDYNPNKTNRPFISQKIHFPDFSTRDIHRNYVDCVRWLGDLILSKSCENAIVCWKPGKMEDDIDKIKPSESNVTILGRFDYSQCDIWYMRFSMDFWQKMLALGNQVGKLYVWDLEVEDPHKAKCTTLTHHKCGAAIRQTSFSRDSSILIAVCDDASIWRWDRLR

Take `[2H]C1Oc2ccc(F)c(C([2H])([2H])Nc3ncc4c5c(ncn35)C(=O)N(CC(F)(F)F)Cc3nc(C)ccc3-4)c2C1[2H]` (stereo not shown) [E 22, 12-(((5-fluoro-2,3-dihydrobenzofuran-4-yl-2,3-d2)methyl-d2)amino)-7-methyl-4-(2,2,2-trifluoroethyl)-4,5-dihydro-3H-2,4,6,11,12a-pentaazabenzo[4,5]cycloocta[1,2,3-cd]inden-3-one]: the IC50 (in experiment [1] (setting [2]); at EED (1-441)-His protein (IC50 class); with Pfeiffer cell line (setting [3])) was under 10 nM throughout.

Turning to `CS(=O)(=O)c1ncn2c(NCc3c(F)ccc4c3CCO4)ncc(-c3ccc(C(F)(F)F)nc3)c12` [compound 102, N-((5-fluoro-2,3-dihydrobenzofuran-4-yl)methyl)-1-(methylsulfonyl)-8-(6-(trifluoromethyl)pyridin-3-yl)imidazo[1,5-c]pyrimidin-5-amine], the IC50 in experiment [1] (Homo sapiens, KARPAS-422, 168 h, read-out: Karpas Cell line (nM)) came to 0.94 nM; at EED (1-441)-His protein, 0.62 nM; in the experiment on Pfeiffer cell line (Homo sapiens, Pfeiffer, 168 h, read-out: Pfeiffer Cell line (nM)) it was 0.59 nM.

Turning to `O=C1Nc2ncccc2-c2cnc(NCc3c(F)ccc4c3CCO4)n3cnc1c23` [compound 4, 11-(((5-fluoro-2,3-dihydrobenzofuran-4-yl)methyl)amino)-2,4,5,10,11a-pentaazadibenzo[cd,f]azulen-3(4H)-one], the IC50 is over 100 nM in experiment [1] (setting [4]); over 10 nM at EED (1-441)-His protein; over 100 nM in the experiment with Pfeiffer cell line (Homo sapiens, 168 h, anti-proliferative IC50, Pfeiffer cell line, 7 day treatment, read-out: Pfeiffer Cell line).

`[2H]C([2H])([2H])c1ccc2c(n1)CN(CC(F)(F)F)C(=O)c1ncn3c(NC([2H])([2H])c4c(F)ccc5c4CCO5)ncc-2c13` [E 21, 12-(((5-fluoro-2,3-dihydrobenzofuran-4-yl)methyl-d2)amino)-7-(methyl-d3)-4-(2,2,2-trifluoroethyl)-4,5-dihydro-3H-2,4,6,11,12a-pentaazabenzo[4,5]cycloocta[1,2,3-cd]inden-3-one]: the IC50 (in experiment [1] (setting [2]); at EED (1-441)-His protein (IC50 class); in the experiment with Pfeiffer cell line (setting [3])) was under 10 nM throughout.

Turning to `CC(C)N1Cc2cc(C(F)(F)F)ncc2-c2cnc(NCc3c(F)ccc4c3CCO4)n3cnc(c23)C1=O` [E 40, 12-(((5-fluoro-2,3-dihydrobenzofuran-4-yl)methyl)amino)-4-isopropyl-7-(trifluoromethyl)-4,5-dihydro-3H-2,4,8,11,12a-pentaazabenzo[4,5]cycloocta[1,2,3-cd]inden-3-one], the IC50 (in experiment [1] (setting [2]); at EED (1-441)-His protein (IC50 class); with Pfeiffer cell line (setting [3])) was under 10 nM in each case.

Take `[2H]C([2H])([2H])c1ccc2c(n1)CN(CC(F)(F)F)C(=O)c1ncn3c(NCc4c(F)ccc5c4CCO5)ncc-2c13` [E 19, 12-(((5-fluoro-2,3-dihydrobenzofuran-4-yl)methyl)amino)-7-(methyl-d3)-4-(2,2,2-trifluoroethyl)-4,5-dihydro-3H-2,4,6,11,12a-pentaazabenzo[4,5]cycloocta[1,2,3-cd]inden-3-one]: the IC50 (in experiment [1] (setting [2]); at EED (1-441)-His protein (IC50 class); in the experiment on Pfeiffer cell line (setting [3])) was under 10 nM each time.

For the molecule `CS(=O)(=O)c1ncn2c(NCc3c(F)ccc4c3CCO4)c(C#N)cc(-c3ccc(C4CC4)nc3)c12` [E 26, 8-(6-cyclopropylpyridin-3-yl)-5-(((5-fluoro-2,3-dihydrobenzofuran-4-yl)methyl)amino)-1-(methylsulfonyl)imidazo[1,5-a]pyridine-6-carbonitrile], the IC50 in experiment [1] (setting [2]) was 10 to 100 nM; on EED (1-441)-His protein (IC50 class) it was 10 to 100 nM; with Pfeiffer cell line (setting [3]), under 10 nM.

Consider `Cc1ccc2c(n1)CN(CC(F)(F)F)C(=O)c1ncn3c(NCc4c(F)ccc5c4CCO5)ncc-2c13` [E 3, 12-(((5-fluoro-2,3-dihydrobenzofuran-4-yl)methyl)amino)-7-methyl-4-(2,2,2-trifluoroethyl)-4,5-dihydro-3H-2,4,6,11,12a-pentaazabenzo[4,5]cycloocta[1,2,3-cd]inden-3-one], for which the IC50 (in experiment [1] (setting [2]); at EED (1-441)-His protein (IC50 class); in the experiment on Pfeiffer cell line (setting [3])) was under 10 nM in each case.

Take `O=C1c2ncn3c(NCc4c(F)ccc5c4CCO5)ncc(c23)-c2ccc(C3COC3)nc2CN1CC(F)(F)F` [E 51, 12-(((5-fluoro-2,3-dihydrobenzofuran-4-yl)methyl)amino)-7-(oxetan-3-yl)-4-(2,2,2-trifluoroethyl)-4,5-dihydro-3H-2,4,6,11,12a-pentaazabenzo[4,5]cycloocta[1,2,3-cd]inden-3-one]: the IC50 (in experiment [1] (setting [2]); at EED (1-441)-His protein (IC50 class); in the experiment on Pfeiffer cell line (setting [3])) was under 10 nM throughout.

Take `Cc1ncccc1-c1cc(C#N)c(NCc2c(F)ccc3c2CCO3)n2cnc(S(C)(=O)=O)c12` [E 27, 5-(((5-fluoro-2,3-dihydrobenzofuran-4-yl)methyl)amino)-8-(2-methylpyridin-3-yl)-1-(methylsulfonyl)imidazo[1,5-a]pyridine-6-carbonitrile]: the IC50 is 10 to 100 nM in experiment [1] (setting [2]), 10 to 100 nM at EED (1-441)-His protein (IC50 class) and under 10 nM in the experiment on Pfeiffer cell line (setting [3]).

As to `[2H]C1Oc2ccc(F)c(C([2H])([2H])Nc3ncc4c5c(ncn35)C(=O)N(CC(F)(F)F)Cc3nc(C([2H])([2H])[2H])ccc3-4)c2C1[2H]` (stereo not shown) [E 23, 12-(((5-fluoro-2,3-dihydrobenzofuran-4-yl-2,3-d2)methyl-d2)amino)-7-(methyl-d3)-4-(2,2,2-trifluoroethyl)-4,5-dihydro-3H-2,4,6,11,12a-pentaazabenzo[4,5]cycloocta[1,2,3-cd]inden-3-one], the IC50 (in experiment [1] (setting [2]); on EED (1-441)-His protein (IC50 class); in the experiment on Pfeiffer cell line (setting [3])) was under 10 nM throughout.

Consider `Cc1ccc(-c2cc(C#N)c(NCc3c(F)ccc4c3CCO4)n3cnc(S(C)(=O)=O)c23)c(C)n1` [E 25, 8-(2,6-dimethylpyridin-3-yl)-5-(((5-fluoro-2,3-dihydrobenzofuran-4-yl)methyl)amino)-1-(methylsulfonyl)imidazo[1,5-a]pyridine-6-carbonitrile], for which the IC50 in experiment [1] (setting [2]) was 10 to 100 nM; on EED (1-441)-His protein (IC50 class), under 10 nM; with Pfeiffer cell line (setting [3]), 10 to 100 nM.

On to `Cc1ccc2c(n1)CN(CC(C)(F)F)C(=O)c1ncn3c(NCc4c(F)ccc5c4CCO5)ncc-2c13` [E 7, 4-(2,2-difluoropropyl)-12-(((5-fluoro-2,3-dihydrobenzofuran-4-yl)methyl)amino)-7-methyl-4,5-dihydro-3H-2,4,6,11,12a-pentaazabenzo[4,5]cycloocta[1,2,3-cd]inden-3-one], for which the IC50 (in experiment [1] (setting [2]); on EED (1-441)-His protein (IC50 class); in the experiment with Pfeiffer cell line (setting [3])) was under 10 nM each time.

As to `[2H]C([2H])(Nc1ncc2c3c(ncn13)C(=O)N(CC(F)(F)F)Cc1nc(C)ccc1-2)c1c(F)ccc2c1CCO2` [E 20, 12-(((5-fluoro-2,3-dihydrobenzofuran-4-yl)methyl-d2)amino)-7-methyl-4-(2,2,2-trifluoroethyl)-4,5-dihydro-3H-2,4,6,11,12a-pentaazabenzo[4,5]cycloocta[1,2,3-cd]inden-3-one], the IC50 (in experiment [1] (setting [2]); on EED (1-441)-His protein (IC50 class); with Pfeiffer cell line (setting [3])) was under 10 nM throughout.

Regarding `O=C1c2ncn3c(NCc4c(F)ccc5c4CCO5)ncc(c23)-c2sccc2CN1C1CC1` [compound 87, 4-cyclopropyl-11-(((5-fluoro-2,3-dihydrobenzofuran-4-yl)methyl)amino)-4,5-dihydro-3H-8-thia-2,4,10,11a-tetraazacyclopenta[4,5]cycloocta[1,2,3-cd]inden-3-one], the IC50 was determined as 8.67 nM in experiment [1] (setting [5]); 11.2 nM at EED (1-441)-His protein; 0.018 nM in the experiment on Pfeiffer cell line (anti-proliferative IC50, Pfeiffer cell line, 7 day treatment, read-out: Pfeiffer Cell line).

`CCP(=O)(CC)c1ncn2c(NCc3c(F)ccc4c3CCO4)ncc(-c3ccc(C(F)(F)F)cc3)c12` [compound 121, diethyl(5-(((5-fluoro-2,3-dihydrobenzofuran-4-yl)methyl)amino)-8-(4-(trifluoromethyl)phenyl)imidazo[1,5-c]pyrimidin-1-yl)phosphine oxide]: the IC50 was over 100 nM in experiment [1] (setting [4]) and 0.31 nM on EED (1-441)-His protein.

Turning to “4-(2,2-difluoropropyl)-7-fluoro-12-(((5-fluoro-2,3- dihydrobenzofuran-4-yl)methyl)amino)-4,5-dihydro- 3H-2,4,11,12a-tetraazabenzo[4,5]cycloocta[1,2,3- cd]inden-3-one [compound 76]”, the figures for the IC50 (in experiment [1] (setting [5]); at EED (1-441)-His protein) were 14.5 nM and 0.97 nM, respectively.
